Data taken from ChEMBL document CHEMBL1201862, “PubChem BioAssay data set” (2004).
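Protocol summary: plate cells (96-well), add compound at 5 concentrations, incubate 48 h, interpolate endpoints linearly. Here, GI50 denotes the concentration required for 50% inhibition of growth.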 The source made the active and inactive calls. No stated cut-off is given here; in the data, active = GI50 up to about 1.1 µM and inactive = higher.

Key:
Test in all cases: NCI-60 cell line screen, 48 h
DMS-114 = system: DMS-114
DMS-273 = system: DMS-273
HOP-18 = system: HOP-18
KM-20L2 = system: KM-20L2
LXFL 529 = system: LXFL 529
M19-MEL = system: M19-MEL
RXF 631 = system: RXF 631
XF498 = system: XF498
SNB-78 = system: SNB-78

SMILES | GI50 (DMS-114) | GI50 (DMS-273) | GI50 (HOP-18) | GI50 (KM-20L2) | GI50 (LXFL 529) | GI50 (M19-MEL) | GI50 (RXF 631) | GI50 (XF498) | GI50 (SNB-78)
CCNC(=O)O/N=C1\CCC2[C@@H]3CC=C4C[C@@H](OC(=O)NCC)CC[C@]4(C)C3CC[C@]12C (stereo not given in full) | 0.358 µM (active) | 1.22 µM (inactive) | 1.7 µM (inactive) | 2.44 µM (inactive) | 1.01 µM (active) | 1.65 µM (inactive) | 4.26 µM (inactive) | 0.0792 µM (active) | –
C#CC1(O)CCC2C3CCc4cc(Oc5nc(F)nc(-c6c7ccccc7c7sc8ccccc8n67)n5)ccc4C3CC[C@@]21C (stereo not given in full) | – | 75.5 µM (inactive) | – | > 100 µM (inactive) | > 100 µM (inactive) | > 100 µM (inactive) | – | > 100 µM (inactive) | –
N/N=C1\C(=O)N(C2CCCCCC2)C(=O)C1C(=O)NC1CCCCCC1 (stereo not given) | – | – | 31 µM (inactive) | 19.5 µM (inactive) | 22.8 µM (inactive) | 37.9 µM (inactive) | – | – | 21.8 µM (inactive)
O=C(CC1(O)C(=O)Nc2ccccc21)c1cccc(O)c1 (stereo not given) | > 100 µM (inactive) | > 100 µM (inactive) | – | > 100 µM (inactive) | > 100 µM (inactive) | > 100 µM (inactive) | > 100 µM (inactive) | 42.5 µM (inactive) | > 100 µM (inactive)
CCCOc1ccc(/C=C\c2cc(OC)c(OC)c(OC)c2)cc1 | 34.4 µM (inactive) | 36.3 µM (inactive) | > 100 µM (inactive) | 33 µM (inactive) | 52.8 µM (inactive) | 67.8 µM (inactive) | 37.1 µM (inactive) | 62.2 µM (inactive) | > 100 µM (inactive)
CCCN(CCC)c1c([N+](=O)[O-])cc(C(=O)N(C)C)cc1[N+](=O)[O-] | 33.4 µM (inactive) | 30.2 µM (inactive) | – | – | > 100 µM (inactive) | 92 µM (inactive) | – | 54.7 µM (inactive) | > 100 µM (inactive)
CCc1cccc(C)c1NC(=O)C(=O)Cc1nc2ccccc2s1 | > 100 µM (inactive) | > 100 µM (inactive) | > 100 µM (inactive) | > 100 µM (inactive) | > 100 µM (inactive) | > 100 µM (inactive) | > 100 µM (inactive) | – | > 100 µM (inactive)
COc1ccc2oc3c(OC)c(OC)c(OC)cc3c(=O)c2c1 | > 100 µM (inactive) | > 100 µM (inactive) | 0.232 µM (active) | > 100 µM (inactive) | > 100 µM (inactive) | > 100 µM (inactive) | > 100 µM (inactive) | > 100 µM (inactive) | 69.7 µM (inactive)
COc1cccc2c1C(=O)c1c(O)c3c(c(O)c1C2=O)C[C@@](O)(C(=O)CO)C[C@@H]3OC1CC(N)C(OC)C(C)O1 (stereo not given in full) | – | 0.0122 µM (active) | 0.156 µM (active) | 0.148 µM (active) | 0.0776 µM (active) | – | 0.0329 µM (active) | < 0.01 µM (active) | 0.207 µM (active)
CN(Cc1ccccc1)C(=O)c1ccccc1C(=O)O | > 100 µM (inactive) | > 100 µM (inactive) | – | > 100 µM (inactive) | > 100 µM (inactive) | > 100 µM (inactive) | > 100 µM (inactive) | > 100 µM (inactive) | –
N[C@H]1C2C3CC4C5CC(C42)C1(c1ccccc1)C53 (stereo not given in full) | > 100 µM (inactive) | > 100 µM (inactive) | > 100 µM (inactive) | > 100 µM (inactive) | > 100 µM (inactive) | > 100 µM (inactive) | – | > 100 µM (inactive) | > 100 µM (inactive)
COC1=CC(=O)C2[C@H]3Cc4ccccc4[C@H]3C2(C)C1=O (stereo not given in full) | – | > 100 µM (inactive) | – | 77.3 µM (inactive) | > 100 µM (inactive) | 83.2 µM (inactive) | > 100 µM (inactive) | 51.5 µM (inactive) | 78 µM (inactive)
COc1cc(C(=O)N[C@H]2CCc3cc(OC)c(OC)c(OC)c3-c3ccc(SC)c(=O)cc32)cc(OC)c1OC | 0.00775 µM (active) | 0.00298 µM (active) | – | 0.00475 µM (active) | 0.00811 µM (active) | 0.0225 µM (active) | 0.0338 µM (active) | 0.024 µM (active) | 0.0025 µM (active)
C/C(N)=[N+](/C)[O-] | 18.4 µM (inactive) | – | > 100 µM (inactive) | > 100 µM (inactive) | > 100 µM (inactive) | 40.5 µM (inactive) | > 100 µM (inactive) | > 100 µM (inactive) | > 100 µM (inactive)
CN1C(=O)C(C)(C)NS1(=O)=O | > 100 µM (inactive) | > 100 µM (inactive) | – | > 100 µM (inactive) | > 100 µM (inactive) | > 100 µM (inactive) | > 100 µM (inactive) | > 100 µM (inactive) | > 100 µM (inactive)
CC(NC(=O)/C(C#N)=C/c1ccc2[nH]ccc2c1)c1ccccc1 (stereo not given) | 22.3 µM (inactive) | 23.5 µM (inactive) | 24.3 µM (inactive) | 18.6 µM (inactive) | 19.5 µM (inactive) | – | – | – | 38.7 µM (inactive)
Cc1cc2c(=O)cc(-c3ccc(Cl)c(Cl)c3)oc2c(C(=O)O)c1C | > 100 µM (inactive) | – | > 100 µM (inactive) | > 100 µM (inactive) | > 100 µM (inactive) | > 100 µM (inactive) | – | > 100 µM (inactive) | > 100 µM (inactive)
COC(=O)[C@@H]1C[C@H](c2ccc(OC)c(OC)c2)OC1=O.COC(=O)[C@H]1C[C@H](c2ccc(OC)c(OC)c2)OC1=O | > 100 µM (inactive) | > 100 µM (inactive) | – | > 100 µM (inactive) | > 100 µM (inactive) | > 100 µM (inactive) | > 100 µM (inactive) | > 100 µM (inactive) | > 100 µM (inactive)
CCOC(=O)N1CCc2cc(OC)c(OC)c3c2c1cc1cc(OC)c(OC)cc13 | 1.55 µM (inactive) | 0.667 µM (active) | 28.1 µM (inactive) | 1.36 µM (inactive) | 3.78 µM (inactive) | 1.88 µM (inactive) | 2.42 µM (inactive) | 0.67 µM (active) | 16.1 µM (inactive)
COC(=O)[C@@H]1c2[nH]c3ccccc3c2C[C@@H]2c3ccccc3NC(=O)[C@@H]21 | > 100 µM (inactive) | > 57.5 µM (inactive) | – | > 100 µM (inactive) | > 65.2 µM (inactive) | > 89.3 µM (inactive) | – | > 100 µM (inactive) | > 76.4 µM (inactive)
CN(C)CCNc1ccc2nnn3c4ccc(Cl)cc4c(=O)c1c23 | – | 2.82 µM (inactive) | – | 2.86 µM (inactive) | 3.23 µM (inactive) | 3.51 µM (inactive) | 2.37 µM (inactive) | 8.73 µM (inactive) | 11.9 µM (inactive)
C/N=N/N(C)C(=O)NC | > 100 µM (inactive) | – | > 100 µM (inactive) | > 100 µM (inactive) | > 100 µM (inactive) | > 100 µM (inactive) | – | – | –
N=C(N)NCCCS(=O)(=O)Nc1ccc(Nc2c3ccccc3nc3cc([N+](=O)[O-])ccc23)cc1 | 4.72 µM (inactive) | 4.21 µM (inactive) | 20.8 µM (inactive) | 23.9 µM (inactive) | 5.62 µM (inactive) | 3.63 µM (inactive) | 25.7 µM (inactive) | 1.91 µM (inactive) | 21.4 µM (inactive)
N#C/N=C(/NCc1ccccc1)N(Cc1ccccc1)Cc1ccccc1 | > 10 µM (inactive) | > 10 µM (inactive) | – | > 10 µM (inactive) | > 10 µM (inactive) | > 10 µM (inactive) | – | > 10 µM (inactive) | –
C=Nc1ccc([N+](=O)[O-])cc1 | > 100 µM (inactive) | > 100 µM (inactive) | > 26.1 µM (inactive) | > 100 µM (inactive) | > 72.8 µM (inactive) | > 100 µM (inactive) | – | > 100 µM (inactive) | > 100 µM (inactive)
Cc1ccc(C(=O)N(Cc2ccccc2)Cc2ccccc2)cc1/N=N/N(C)C | – | 41.8 µM (inactive) | – | – | 6.31 µM (inactive) | – | – | – | 27.2 µM (inactive)
NC(=O)COc1c(Br)cc(Br)cc1Br | > 100 µM (inactive) | > 100 µM (inactive) | – | > 100 µM (inactive) | – | > 100 µM (inactive) | > 100 µM (inactive) | > 100 µM (inactive) | –
CC1=[N+]([O-])c2ccccc2C(=O)C1=O | > 100 µM (inactive) | > 100 µM (inactive) | > 100 µM (inactive) | > 100 µM (inactive) | > 100 µM (inactive) | 44.8 µM (inactive) | – | > 100 µM (inactive) | > 100 µM (inactive)
Cc1cc(N(CCC#N)CCC#N)ccc1/C=C(\NC(=O)/C=C/c1ccccc1)NC(=O)Nc1ccc(Cl)cc1 | 17.3 µM (inactive) | 5.04 µM (inactive) | – | 5.37 µM (inactive) | 0.652 µM (active) | 93.1 µM (inactive) | – | > 100 µM (inactive) | > 10 µM (inactive)
c1cncc(C2N3CCCCC3[C@@H]3c4[nH]c5ccccc5c4CCN23)c1 (stereo not given in full) | – | > 100 µM (inactive) | > 100 µM (inactive) | > 100 µM (inactive) | > 100 µM (inactive) | > 100 µM (inactive) | > 100 µM (inactive) | > 100 µM (inactive) | 87.1 µM (inactive)
